{"source": "PubChem BioAssay AID1259409", "about": "(Chemical Carcinogenesis Research Information System (CCRIS), 2018)", "origin": "cited, not measured here", "test_system": "rodent chemically induced tumor inhibition, incidence and multiplicity", "assay": "CCRIS tumor inhibitor studies", "settings": "Promoter: NONE USED", "key": {"[1]": {"settings": "Carcinogen: 4-NITROQUINOLINE-1-OXIDE, 56-57-5, Dose [Inhibitor]: 0, 500 PPM IN DIET FOR 10 WK BEGINNING 1 WK PRIOR TO CARCINOGEN DOSE (STUDY DURATION: 32 WK), Route [Inhibitor]: ORAL, Species: RAT, Strain/Sex: F344/MALE, Target Tissue: Type of Lesion: TONGUE: CARCINOMA, Dose [Carcinogen]: 20 PPM IN DRINKING WATER FOR 8 WK"}, "[2]": {"settings": "Carcinogen: 4-NITROQUINOLINE-1-OXIDE, 56-57-5, Dose [Inhibitor]: 0, 500 PPM IN DIET FOR 10 WK BEGINNING 1 WK PRIOR TO CARCINOGEN DOSE (STUDY DURATION: 32 WK), Route [Inhibitor]: ORAL, Species: RAT, Strain/Sex: F344/MALE, Target Tissue: Type of Lesion: TONGUE: PAPILLOMA, Dose [Carcinogen]: 20 PPM IN DRINKING WATER FOR 8 WK"}, "[3]": {"settings": "Carcinogen: 4-NITROQUINOLINE-1-OXIDE, 56-57-5, Dose [Inhibitor]: 0, 500 PPM IN DIET FOR 22 WK BEGINNING 1 WK POST CARCINOGEN TREATMENT (STUDY DURATION: 32 WK), Route [Inhibitor]: ORAL, Species: RAT, Strain/Sex: F344/MALE, Target Tissue: Type of Lesion: TONGUE: CARCINOMA, Dose [Carcinogen]: 20 PPM IN DRINKING WATER FOR 8 WK"}, "[4]": {"settings": "Carcinogen: 4-NITROQUINOLINE-1-OXIDE, 56-57-5, Dose [Inhibitor]: 0, 500 PPM IN DIET FOR 22 WK BEGINNING 1 WK POST CARCINOGEN TREATMENT (STUDY DURATION: 32 WK), Route [Inhibitor]: ORAL, Species: RAT, Strain/Sex: F344/MALE, Target Tissue: Type of Lesion: TONGUE: PAPILLOMA, Dose [Carcinogen]: 20 PPM IN DRINKING WATER FOR 8 WK"}}, "data": [{"molecule": "O=C(/C=C/c1ccccc1)c1ccccc1", "values": [{"measurement": "tumour outcome (control, treated, inhibition, significance)", "setting": "[1]", "result": "9/15 (60%), 3/16 (19%), 68%, p<0.05"}, {"measurement": "tumour outcome (control, treated, inhibition, significance)", "setting": "[2]", "result": "4/15 (27%), 1/16 (6%), 78%, not significant"}, {"measurement": "tumour outcome (control, treated, inhibition, significance)", "setting": "[3]", "result": "9/15 (60%), 3/16 (19%), 68%, p<0.05"}, {"measurement": "tumour outcome (control, treated, inhibition, significance)", "setting": "[4]", "result": "4/15 (27%), 0/16 (0%), 100%, p<0.05"}, {"measurement": "tumour outcome (control, treated, inhibition, significance)", "setting": "Carcinogen: BENZO[A]PYRENE, 50-32-8, Dose [Inhibitor]: 0, 0.2 MG/G IN DIET FOR 21 WK BEGINNING 1 WK POST LAST CARCINOGEN DOSE (STUDY DURATION: 23 WK), Route [Inhibitor]: ORAL, Species: MOUSE, Strain/Sex: STRAIN-A/FEMALE, Target Tissue: Type of Lesion: FORESTOMACH: TUMOR, Dose [Carcinogen]: 2 MG IN 0.2 ML COTTONSEED OIL ONCE EACH ON DAYS 1, 3 AND 7 OF STUDY", "result": "93%, 100%, -8%, not significant"}, {"measurement": "tumour outcome (control, treated, inhibition, significance)", "setting": "Carcinogen: BENZO[A]PYRENE, 50-32-8, Dose [Inhibitor]: 0, 1 MG/G IN DIET FOR 21 WK BEGINNING 1 WK POST LAST CARCINOGEN DOSE (STUDY DURATION: 23 WK), Route [Inhibitor]: ORAL, Species: MOUSE, Strain/Sex: STRAIN-A/FEMALE, Target Tissue: Type of Lesion: FORESTOMACH: TUMOR, Dose [Carcinogen]: 2 MG IN 0.2 ML COTTONSEED OIL ONCE EACH ON DAYS 1, 3 AND 7 OF STUDY", "result": "93%, 100%, -8%, not significant"}, {"measurement": "tumour outcome (control, treated, inhibition, significance)", "setting": "Carcinogen: BENZO[A]PYRENE, 50-32-8, Dose [Inhibitor]: 0, 5 MG/G IN DIET FOR 21 WK BEGINNING 1 WK POST LAST CARCINOGEN DOSE (STUDY DURATION: 23 WK), Route [Inhibitor]: ORAL, Species: MOUSE, Strain/Sex: STRAIN-A/FEMALE, Target Tissue: Type of Lesion: FORESTOMACH: TUMOR, Dose [Carcinogen]: 2 MG IN 0.2 ML COTTONSEED OIL ONCE EACH ON DAYS 1, 3 AND 7 OF STUDY", "result": "93%, 100%, -8%, not significant"}, {"measurement": "tumour outcome (control, treated, inhibition, significance)", "setting": "Carcinogen: BENZO[A]PYRENE, 50-32-8, Dose [Inhibitor]: 0, 10 MG/G IN DIET FOR 21 WK BEGINNING 1 WK POST LAST CARCINOGEN DOSE (STUDY DURATION: 23 WK), Route [Inhibitor]: ORAL, Species: MOUSE, Strain/Sex: STRAIN-A/FEMALE, Target Tissue: Type of Lesion: FORESTOMACH: TUMOR, Dose [Carcinogen]: 2 MG IN 0.2 ML COTTONSEED OIL ONCE EACH ON DAYS 1, 3 AND 7 OF STUDY", "result": "93%, 100%, -8%, not significant"}, {"measurement": "tumour outcome (control, treated, inhibition, significance)", "setting": "Carcinogen: N-METHYL-N-NITROSOUREA, 684-93-5, Dose [Inhibitor]: 0, 5 MG/G IN DIET FOR 17 WK BEGINNING 1 WK POST CARCINOGEN DOSE (STUDY DURATION: 18 WK), Route [Inhibitor]: ORAL, Species: RAT, Strain/Sex: SPRAGUE-DAWLEY/FEMALE, Target Tissue: Type of Lesion: MAMMARY GLAND: TUMOR, Dose [Carcinogen]: 50 MG/KG BW ONCE", "result": "71%, 36%, 49%, p=0.058"}, {"measurement": "tumour outcome (control, treated, inhibition, significance)", "setting": "Carcinogen: N-METHYL-N-NITROSOUREA, 684-93-5, Dose [Inhibitor]: 0, 5 MG/G IN DIET STARTING 4 WK POST CARCINOGEN DOSE THEN FED FOR 3 WK ALTERNATING WITH 3 WK ON CONTROL DIET FOR DURATIO, Route [Inhibitor]: ORAL, Species: RAT, Strain/Sex: SPRAGUE-DAWLEY/FEMALE, Target Tissue: Type of Lesion: MAMMARY GLAND: TUMOR, Dose [Carcinogen]: 50 MG/KG BW ONCE", "result": "75%, 38%, 49%, p=0.033"}]}, {"molecule": "NC(C[Se][Se]CC(N)C(=O)O)C(=O)O", "note": "(configuration not stated)", "values": [{"measurement": "tumour outcome (control, treated, inhibition, significance)", "setting": "Carcinogen: 7,12-DIMETHYLBENZ[A]ANTHRACENE, 57-97-6, Dose [Inhibitor]: 0, 0.2 PPM IN DIET BEGINNING 3 D PRIOR TO CARCINOGEN DOSE AND CONTINUING FOR 8 MO (STUDY DURATION: 8 MO), Route [Inhibitor]: ORAL, Species: MOUSE, Strain/Sex: BALB/FEMALE, Target Tissue: Type of Lesion: MAMMARY GLAND: ADENOCARCINOMA, Dose [Carcinogen]: 1 MG/WK FOR 6 WK", "result": "12/31 (39%), 8/28 (29%), 26%, not calculated"}, {"measurement": "tumour outcome (control, treated, inhibition, significance)", "setting": "Carcinogen: 7,12-DIMETHYLBENZ[A]ANTHRACENE, 57-97-6, Dose [Inhibitor]: 0, 2 PPM IN DIET BEGINNING 3 D PRIOR TO CARCINOGEN DOSE AND CONTINUING FOR 8 MO (STUDY DURATION: 8 MO), Route [Inhibitor]: ORAL, Species: MOUSE, Strain/Sex: BALB/FEMALE, Target Tissue: Type of Lesion: MAMMARY GLAND: ADENOCARCINOMA, Dose [Carcinogen]: 1 MG/WK FOR 6 WK", "result": "12/31 (39%), 7/24 (29%), 26%, not calculated"}]}, {"molecule": "O=[N+]([O-])[O-].O=[N+]([O-])[O-].O=[N+]([O-])[O-].[Bi+3]", "values": [{"measurement": "tumour outcome (control, treated, inhibition, significance)", "setting": "Carcinogen: CISPLATIN, 15663-27-1, Dose [Inhibitor]: 0, 50 UMOL/KG/D 3 D/WK FOR 8 WK ADMINISTERED 24 HR PRIOR TO EACH CARCINOGEN DOSE (STUDY DURATION: 24 WK), Route [Inhibitor]: SUBCUTANEOUS, Species: MOUSE, Strain/Sex: STRAIN-A/FEMALE, Target Tissue: Type of Lesion: LUNG: TUMOR, Dose [Carcinogen]: 2 UMOL/KG/D 3 D/WK FOR 8 WK", "result": "100%, 54%, 46%, p<0.01"}, {"measurement": "tumour outcome (control, treated, inhibition, significance)", "setting": "Carcinogen: MELPHALAN, 148-82-3, Dose [Inhibitor]: 0, 50 UMOL/KG/D 3 D/WK FOR 8 WK ADMINISTERED 24 HR PRIOR TO EACH CARCINOGEN DOSE (STUDY DURATION: 24 WK), Route [Inhibitor]: SUBCUTANEOUS, Species: MOUSE, Strain/Sex: STRAIN-A/FEMALE, Target Tissue: Type of Lesion: LUNG: TUMOR, Dose [Carcinogen]: 4 UMOL/KG/D 3 D/WK FOR 8 WK", "result": "100%, 100%, 0%, not significant"}]}, {"molecule": "C[C@]12CCC(=O)C=C1CC[C@@H]1[C@@H]2CC[C@@]2(C)[C@H]1CC[C@]2(C)O", "values": [{"measurement": "tumour outcome (control, treated, inhibition, significance)", "setting": "Carcinogen: N-BIS(2-HYDROXYPROPYL)NITROSAMINE, 53609-64-6, Dose [Inhibitor]: 0.03% IN DIET FOR 28 WK BEGINNING POST CARCINOGEN DOSE (STUDY DURATION: 30 WK), Route [Inhibitor]: ORAL, Species: RAT, Strain/Sex: WISTAR/MALE, Target Tissue: Type of Lesion: THYROID: ADENOMA, Dose [Carcinogen]: 210 MG/100 G 1/WK FOR 2 WK", "result": "9/13 (69%), 2/15 (13%), 81%, p<0.05"}, {"measurement": "tumour outcome (control, treated, inhibition, significance)", "setting": "Carcinogen: N-BIS(2-HYDROXYPROPYL)NITROSAMINE, 53609-64-6, Dose [Inhibitor]: 0.03% IN DIET FOR 28 WK BEGINNING POST CARCINOGEN DOSE (STUDY DURATION: 30 WK), Route [Inhibitor]: ORAL, Species: RAT, Strain/Sex: WISTAR/MALE, Target Tissue: Type of Lesion: THYROID: CARCINOMA, Dose [Carcinogen]: 210 MG/100 G 1/WK FOR 2 WK", "result": "2/13 (15%), 2/15 (13%), 13%, not calculated"}, {"measurement": "tumour outcome (control, treated, inhibition, significance)", "setting": "Carcinogen: N-BIS(2-HYDROXYPROPYL)NITROSAMINE, 53609-64-6, Dose [Inhibitor]: 0.15% IN DIET FOR 28 WK BEGINNING POST CARCINOGEN DOSE (STUDY DURATION: 30 WK), Route [Inhibitor]: ORAL, Species: RAT, Strain/Sex: WISTAR/MALE, Target Tissue: Type of Lesion: THYROID: ADENOMA, Dose [Carcinogen]: 210 MG/100 G 1/WK FOR 2 WK", "result": "9/13 (69%), 0/15 (0%), 100%, p<0.05"}]}, {"molecule": "O=C(/C=C/c1ccccc1)c1ccccc1O", "values": [{"measurement": "tumour outcome (control, treated, inhibition, significance)", "setting": "[1]", "result": "9/15 (60%), 2/16 (13%), 78%, p<0.05"}, {"measurement": "tumour outcome (control, treated, inhibition, significance)", "setting": "[2]", "result": "4/15 (27%), 1/16 (6%), 78%, not significant"}, {"measurement": "tumour outcome (control, treated, inhibition, significance)", "setting": "[3]", "result": "9/15 (60%), 3/16 (19%), 68%, p<0.05"}, {"measurement": "tumour outcome (control, treated, inhibition, significance)", "setting": "[4]", "result": "4/15 (27%), 0/16 (0%), 100%, p<0.05"}]}, {"molecule": "Cc1ccc2oc(=O)ccc2c1", "values": [{"measurement": "tumour outcome (control, treated, inhibition, significance)", "setting": "Carcinogen: BENZO[A]PYRENE, 50-32-8, Dose [Inhibitor]: 0.034 MMOL/G IN DIET FOR 5 WK BEGINNING 1 WK PRIOR TO FIRST CARCINOGEN DOSE AND CONTINUING FOR 3 D POST LAST CARCINOGEN, Route [Inhibitor]: ORAL, Species: MOUSE, Strain/Sex: ICR/FEMALE, Target Tissue: Type of Lesion: FORESTOMACH: TUMOR, Dose [Carcinogen]: 1 MG IN 0.2 ML CORN OIL 2/WK FOR 4 WK", "result": "90%, 90%, 0%, not significant"}]}]}
